# The NIST ThermoML archive (doi:10.1016/j.jct.2019.01.004)
# ± gives the expanded uncertainty stated by the source.
# Settings: Liquid, Ebulliometric method (Recirculating still)
Compound,vapor or sublimation pressure (352.62 K),vapor or sublimation pressure (337.68 K)
CCC(=O)OC [methyl propanoate],101.3 ± 3.7 kPa,
CO [methanol],,101.3 ± 3.7 kPa
